The source made the active and inactive calls.
Key:
[1] = target: Glucose-6-phosphate 1-dehydrogenase (Homo sapiens, UniProt P11413); experiment: inhibition of Homo sapiens G6PD, dose series – biochemical, fluorescence, selectivity assay for P. falciparum G6PD inhibitor project, dose response (AID 504792); type: functional
[2] = target: Cytochrome P450 2C19 (Homo sapiens, UniProt P33261); experiment: Cytochrome panel assay with activity outcomes. Panel member name: p450-cyp2c19 Compounds with AC50 equal or less than 10 uM are considered active; type: functional; settings: read-out: AC50
Chain of Cytochrome P450 2C19 (P33261 whole entry, the tested form may be a part): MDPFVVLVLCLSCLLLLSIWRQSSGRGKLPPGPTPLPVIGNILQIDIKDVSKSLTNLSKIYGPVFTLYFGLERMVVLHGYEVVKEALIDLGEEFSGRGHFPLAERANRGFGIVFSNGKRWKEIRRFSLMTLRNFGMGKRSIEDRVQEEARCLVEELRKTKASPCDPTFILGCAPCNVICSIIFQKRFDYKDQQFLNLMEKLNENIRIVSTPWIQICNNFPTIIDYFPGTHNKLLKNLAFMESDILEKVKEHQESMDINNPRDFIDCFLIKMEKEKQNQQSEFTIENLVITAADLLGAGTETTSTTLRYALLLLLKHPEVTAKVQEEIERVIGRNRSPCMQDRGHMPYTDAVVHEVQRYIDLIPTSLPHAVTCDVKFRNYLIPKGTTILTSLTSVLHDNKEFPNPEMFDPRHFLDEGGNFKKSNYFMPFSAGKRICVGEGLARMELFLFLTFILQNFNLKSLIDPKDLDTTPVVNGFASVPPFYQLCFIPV

[3] = test system: CHO; experiment: CHO cell viability loss, potency – luminescence, cytotoxicity control for TLR9-MyD88 binding inhibitor project, dose response (AID 588339); type: functional, cell-based, hamster; settings: Cricetulus griseus;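 further: CHO cells stably coexpressing TLR9 and MyD88 fusions from primary screen; compound exposure lasted 48 hours before viability readout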
[4] = target: Beta Lactamase (Pseudomonas aeruginosa, UniProt Q932Y6); experiment: BLA reporter interference, concentration series – BLA reporter cells, FRET fluorescence, artefact control for TLR9-MyD88 binding inhibitor project, dose response (AID 588341); type: cell-based;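 further: cell based assay in CHO-K1 cells stably expressing beta-lactamase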
Chain of Beta Lactamase (Q932Y6 whole entry): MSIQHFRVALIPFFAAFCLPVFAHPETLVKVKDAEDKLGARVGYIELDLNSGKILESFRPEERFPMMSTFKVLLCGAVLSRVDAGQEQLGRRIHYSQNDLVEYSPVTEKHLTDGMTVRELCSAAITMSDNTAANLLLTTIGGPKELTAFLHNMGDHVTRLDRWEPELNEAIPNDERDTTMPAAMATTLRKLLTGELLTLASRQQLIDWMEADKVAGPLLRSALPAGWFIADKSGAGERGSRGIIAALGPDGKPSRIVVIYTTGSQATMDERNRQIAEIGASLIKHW

[5] = target: Cytochrome P450 3A4 (Homo sapiens, UniProt P08684);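 further: CYP3A4 tested as one member of a cytochrome P450 panel screen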
Chain of Cytochrome P450 3A4 (P08684 whole entry): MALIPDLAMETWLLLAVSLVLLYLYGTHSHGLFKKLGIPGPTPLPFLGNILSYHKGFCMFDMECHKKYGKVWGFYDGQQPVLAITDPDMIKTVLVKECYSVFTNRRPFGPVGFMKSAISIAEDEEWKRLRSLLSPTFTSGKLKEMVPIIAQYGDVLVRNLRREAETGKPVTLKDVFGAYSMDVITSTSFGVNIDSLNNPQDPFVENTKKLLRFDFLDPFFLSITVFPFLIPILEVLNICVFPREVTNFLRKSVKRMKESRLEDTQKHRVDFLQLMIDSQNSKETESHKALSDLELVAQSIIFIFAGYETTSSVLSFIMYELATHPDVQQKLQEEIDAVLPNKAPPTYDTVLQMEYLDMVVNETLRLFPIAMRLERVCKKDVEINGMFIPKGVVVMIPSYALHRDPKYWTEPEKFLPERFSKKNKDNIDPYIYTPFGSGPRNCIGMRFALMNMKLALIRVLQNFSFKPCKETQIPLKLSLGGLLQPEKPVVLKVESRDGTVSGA

[6] = test system: HEK293; experiment: cells; type: functional, cell-based; settings: Homo sapiens
[7] = target: T1, Nuclear receptor subfamily 0 group B member 1 (Homo sapiens, UniProt P51843); experiment: Luminescence-based cell-based high throughput dose response assay for inhibitors of the orphan nuclear receptor subfamily 0, group B, member 1 (DAX1; NR0B1). [Related pubchem assays (depositor defined):AID504766, AID504790]; type: functional
T1 sequence (P51843 whole entry): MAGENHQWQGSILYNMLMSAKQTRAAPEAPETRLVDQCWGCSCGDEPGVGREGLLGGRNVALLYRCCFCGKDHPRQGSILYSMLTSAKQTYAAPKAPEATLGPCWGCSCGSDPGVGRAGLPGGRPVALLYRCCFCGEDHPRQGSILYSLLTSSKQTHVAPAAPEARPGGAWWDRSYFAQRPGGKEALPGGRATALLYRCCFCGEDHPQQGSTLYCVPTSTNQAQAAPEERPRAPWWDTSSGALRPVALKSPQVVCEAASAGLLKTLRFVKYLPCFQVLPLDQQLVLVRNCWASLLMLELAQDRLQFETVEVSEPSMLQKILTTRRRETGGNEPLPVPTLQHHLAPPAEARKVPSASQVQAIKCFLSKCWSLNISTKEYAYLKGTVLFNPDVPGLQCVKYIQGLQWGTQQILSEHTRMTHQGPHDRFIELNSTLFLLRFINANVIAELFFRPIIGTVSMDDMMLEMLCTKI

[8] = target: Genome polyprotein (dengue virus type 2, UniProt P29990); experiment: flavivirus cap methylation enzyme inhibition – biochemical, confirmation dose response, primary screen (AID 588689); type: functional
Chain of Genome polyprotein (P29990 2492-3391 limits assumed): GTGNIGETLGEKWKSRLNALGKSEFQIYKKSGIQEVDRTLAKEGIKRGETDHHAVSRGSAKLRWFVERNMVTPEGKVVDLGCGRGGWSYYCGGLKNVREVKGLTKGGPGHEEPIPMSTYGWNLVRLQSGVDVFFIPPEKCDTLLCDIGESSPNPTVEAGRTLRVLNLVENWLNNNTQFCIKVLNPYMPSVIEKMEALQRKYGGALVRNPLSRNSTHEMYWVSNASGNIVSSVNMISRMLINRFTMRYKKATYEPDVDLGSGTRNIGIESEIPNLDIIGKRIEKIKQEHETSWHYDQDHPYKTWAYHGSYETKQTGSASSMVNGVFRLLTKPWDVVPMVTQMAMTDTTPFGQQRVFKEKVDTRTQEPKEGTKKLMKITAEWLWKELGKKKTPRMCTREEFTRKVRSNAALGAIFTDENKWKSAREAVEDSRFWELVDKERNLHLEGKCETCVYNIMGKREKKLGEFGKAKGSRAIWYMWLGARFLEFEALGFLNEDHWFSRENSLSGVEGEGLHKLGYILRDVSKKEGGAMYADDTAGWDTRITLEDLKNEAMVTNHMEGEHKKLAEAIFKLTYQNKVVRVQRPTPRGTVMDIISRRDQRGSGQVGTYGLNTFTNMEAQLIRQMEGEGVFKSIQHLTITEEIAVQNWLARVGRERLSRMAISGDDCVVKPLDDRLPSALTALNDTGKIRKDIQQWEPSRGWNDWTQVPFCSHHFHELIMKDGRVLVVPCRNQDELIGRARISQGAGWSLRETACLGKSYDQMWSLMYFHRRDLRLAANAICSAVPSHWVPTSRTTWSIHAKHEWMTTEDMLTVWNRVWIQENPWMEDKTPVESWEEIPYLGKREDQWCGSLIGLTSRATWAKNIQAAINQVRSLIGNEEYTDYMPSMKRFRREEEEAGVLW

[9] = target: T2, Exodeoxyribonuclease V (Escherichia coli (strain K12), UniProt P04993+P07648+P08394); experiment: RecBCD inhibition via phage-restricted bacterial growth – absorbance, V66 E. coli, mutant T4 phage, counter-screen for AddAB inhibitor project, dose response (AID 492957); type: functional, cell-based, Escherichia coli str. K-12 substr. MG1655
T2 sequence (P04993 whole entry): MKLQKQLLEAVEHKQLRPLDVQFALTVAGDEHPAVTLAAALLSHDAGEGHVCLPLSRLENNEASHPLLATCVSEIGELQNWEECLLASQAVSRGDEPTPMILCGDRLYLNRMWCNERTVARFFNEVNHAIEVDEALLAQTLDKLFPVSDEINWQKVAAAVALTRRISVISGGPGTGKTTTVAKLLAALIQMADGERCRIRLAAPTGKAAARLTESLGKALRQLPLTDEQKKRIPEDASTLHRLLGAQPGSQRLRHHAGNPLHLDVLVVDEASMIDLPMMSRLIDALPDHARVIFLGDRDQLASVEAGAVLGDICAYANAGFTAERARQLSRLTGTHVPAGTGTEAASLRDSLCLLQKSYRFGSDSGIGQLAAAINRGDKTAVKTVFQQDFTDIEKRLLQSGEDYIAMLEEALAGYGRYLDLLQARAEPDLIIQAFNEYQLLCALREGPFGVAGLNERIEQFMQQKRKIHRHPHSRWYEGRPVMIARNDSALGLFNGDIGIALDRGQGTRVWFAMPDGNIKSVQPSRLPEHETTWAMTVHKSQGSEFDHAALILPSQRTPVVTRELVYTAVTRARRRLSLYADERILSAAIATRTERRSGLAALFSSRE
T2 sequence (P07648 whole entry): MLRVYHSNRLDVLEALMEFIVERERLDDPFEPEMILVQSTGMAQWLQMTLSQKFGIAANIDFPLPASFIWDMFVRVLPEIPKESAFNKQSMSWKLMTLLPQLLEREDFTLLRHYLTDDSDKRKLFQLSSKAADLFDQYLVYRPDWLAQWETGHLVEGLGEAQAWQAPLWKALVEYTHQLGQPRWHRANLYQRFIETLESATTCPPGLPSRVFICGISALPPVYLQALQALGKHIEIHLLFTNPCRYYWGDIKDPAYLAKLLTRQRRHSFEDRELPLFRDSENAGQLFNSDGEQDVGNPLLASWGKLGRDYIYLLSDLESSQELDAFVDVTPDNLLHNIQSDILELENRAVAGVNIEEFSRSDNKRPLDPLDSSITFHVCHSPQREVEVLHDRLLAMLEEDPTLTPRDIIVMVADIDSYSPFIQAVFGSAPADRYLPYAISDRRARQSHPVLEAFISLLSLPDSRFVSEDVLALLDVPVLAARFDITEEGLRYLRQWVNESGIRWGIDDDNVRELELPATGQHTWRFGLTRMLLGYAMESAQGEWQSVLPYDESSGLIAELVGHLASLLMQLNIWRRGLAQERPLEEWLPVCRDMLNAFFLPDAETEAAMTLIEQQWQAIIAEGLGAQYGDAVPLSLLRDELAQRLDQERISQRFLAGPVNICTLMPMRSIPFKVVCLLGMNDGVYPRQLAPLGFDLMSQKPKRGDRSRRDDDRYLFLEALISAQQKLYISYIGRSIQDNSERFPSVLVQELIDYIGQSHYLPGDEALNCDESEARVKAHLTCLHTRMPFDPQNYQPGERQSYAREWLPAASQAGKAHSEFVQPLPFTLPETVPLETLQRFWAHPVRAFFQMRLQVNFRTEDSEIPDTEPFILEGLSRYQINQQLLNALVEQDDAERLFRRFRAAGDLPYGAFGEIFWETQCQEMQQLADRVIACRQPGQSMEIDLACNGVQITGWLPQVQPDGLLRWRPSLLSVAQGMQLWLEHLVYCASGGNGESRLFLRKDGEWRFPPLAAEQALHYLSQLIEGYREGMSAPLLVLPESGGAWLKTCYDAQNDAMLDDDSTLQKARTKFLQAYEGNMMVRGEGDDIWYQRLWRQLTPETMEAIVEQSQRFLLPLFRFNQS
T2 sequence (P08394 whole entry): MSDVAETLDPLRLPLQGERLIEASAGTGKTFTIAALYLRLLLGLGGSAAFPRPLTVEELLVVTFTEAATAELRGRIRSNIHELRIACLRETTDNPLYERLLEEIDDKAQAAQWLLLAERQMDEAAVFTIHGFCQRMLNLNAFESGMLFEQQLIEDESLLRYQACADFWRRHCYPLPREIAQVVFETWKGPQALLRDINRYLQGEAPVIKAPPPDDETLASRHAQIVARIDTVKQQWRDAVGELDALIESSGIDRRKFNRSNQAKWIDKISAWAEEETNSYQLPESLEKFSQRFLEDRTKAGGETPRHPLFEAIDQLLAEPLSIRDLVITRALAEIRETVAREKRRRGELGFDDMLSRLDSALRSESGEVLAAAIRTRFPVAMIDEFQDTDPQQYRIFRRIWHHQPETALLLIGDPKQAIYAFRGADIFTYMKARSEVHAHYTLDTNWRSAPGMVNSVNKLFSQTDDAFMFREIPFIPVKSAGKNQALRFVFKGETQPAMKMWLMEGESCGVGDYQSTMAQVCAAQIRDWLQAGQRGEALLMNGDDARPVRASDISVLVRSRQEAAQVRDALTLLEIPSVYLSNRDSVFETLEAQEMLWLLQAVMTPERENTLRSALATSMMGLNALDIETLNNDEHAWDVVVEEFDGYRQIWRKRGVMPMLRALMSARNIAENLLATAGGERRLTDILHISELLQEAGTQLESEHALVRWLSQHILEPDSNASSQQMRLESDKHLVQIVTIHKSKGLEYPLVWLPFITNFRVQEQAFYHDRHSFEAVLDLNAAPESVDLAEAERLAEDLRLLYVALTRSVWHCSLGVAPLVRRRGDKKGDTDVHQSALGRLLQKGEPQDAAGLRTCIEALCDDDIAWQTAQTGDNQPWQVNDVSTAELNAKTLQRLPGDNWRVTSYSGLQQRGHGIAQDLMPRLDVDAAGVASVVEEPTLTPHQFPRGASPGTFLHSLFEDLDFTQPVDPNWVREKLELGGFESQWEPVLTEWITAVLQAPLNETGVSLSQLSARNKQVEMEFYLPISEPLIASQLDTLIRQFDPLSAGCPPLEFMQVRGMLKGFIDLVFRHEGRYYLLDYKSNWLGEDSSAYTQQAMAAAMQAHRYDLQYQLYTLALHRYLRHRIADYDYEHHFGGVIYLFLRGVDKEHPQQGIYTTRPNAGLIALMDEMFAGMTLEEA

[10] = THP-1 cell cytotoxicity, dose response, cytotoxicity control for non-replicating M. tuberculosis project (AID 489025); type: functional
[11] = Counterscreen for AddAB inhibitors: absorbance-based bacterial cell-based high throughput dose response assay for inhibitors of bacterial viability. [Related pubchem assays (depositor defined):AID435030, AID449728, AID449731, AID488942, AID488955, AID488956]; type: functional
[12] = target: T3, Microphthalmia-associated transcription factor (Homo sapiens, UniProt O75030); experiment: reducers of TRPM1 reporter luminescence, concentration series – cell-based, SK-MEL-5, cherry-picked, set 3, MITF inhibitor project, dose response (AID 493073); type: functional;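 further: SK-MEL-5 melanoma cells with luciferase driven by the MITF target TRPM1 promoter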
T3 sequence (O75030 whole entry): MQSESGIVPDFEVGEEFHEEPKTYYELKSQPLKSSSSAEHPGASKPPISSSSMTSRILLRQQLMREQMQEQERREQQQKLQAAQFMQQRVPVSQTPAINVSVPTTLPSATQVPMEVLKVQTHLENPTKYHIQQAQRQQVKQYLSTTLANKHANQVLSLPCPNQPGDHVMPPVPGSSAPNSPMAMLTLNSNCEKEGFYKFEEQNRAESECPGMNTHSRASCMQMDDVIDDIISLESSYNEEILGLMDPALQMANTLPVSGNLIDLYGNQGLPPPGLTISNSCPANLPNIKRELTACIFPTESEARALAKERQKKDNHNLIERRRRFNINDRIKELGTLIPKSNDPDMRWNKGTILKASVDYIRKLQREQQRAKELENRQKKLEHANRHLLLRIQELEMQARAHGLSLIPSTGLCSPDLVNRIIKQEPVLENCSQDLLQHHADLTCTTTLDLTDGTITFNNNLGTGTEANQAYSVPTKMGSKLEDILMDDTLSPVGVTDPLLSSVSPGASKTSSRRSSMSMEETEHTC

[13] = cells; type: functional
[14] = viability of uninfected HEp-2 cells – cell-based, HTS, cytotoxicity control for RSV inhibitor project, dose response (AID 2410); type: functional; settings: human respiratory syncytial virus
[15] = Luminescence Cell-Based Dose Confirmation HTS to Identify Activators of 5'UTR Stem-Loop Driven Alpha-Synuclein mRNA Translation in H4 Neuroglioblastoma Cells. [Related pubchem assays: 1829 (Project Summary), 1814 (Primary HTS)]; type: functional
[16] = Luminescence Cell-Based Dose Response HTS to Identify Activators of Luciferase Translation or Activity in H4 […] Cells. [Related pubchem assays: 1829 (Project Summary), 1814 (Primary HTS)]; type: functional
[17] = test system: H4; experiment: Luminescence Cell-Based Dose Response HTS to Identify Activators of 5'UTR Stem-Loop Driven Prion Protein mRNA Translation in H4 Neuroglioblastoma Cells. [Related pubchem assays: 1829 (Project Summary), 1814 (Primary HTS)]; type: functional; settings: Homo sapiens
[18] = microbe, parasite or virus in culture; type: functional; settings: Mycobacterium tuberculosis
[19] = target: UDP-galactopyranose mutase (Mycobacterium tuberculosis, UniProt P9WIQ1); experiment: Inhibitors of Mycobacterium tuberculosis UDP-galactopyranose mutase (UGM) enzyme Measured in Biochemical System Using Plate Reader - 2105-02_Inhibitor_Dose_CherryPick_Activity. [Related pubchem assays (depositor defined):AID504439]
Chain of UDP-galactopyranose mutase (P9WIQ1 whole entry): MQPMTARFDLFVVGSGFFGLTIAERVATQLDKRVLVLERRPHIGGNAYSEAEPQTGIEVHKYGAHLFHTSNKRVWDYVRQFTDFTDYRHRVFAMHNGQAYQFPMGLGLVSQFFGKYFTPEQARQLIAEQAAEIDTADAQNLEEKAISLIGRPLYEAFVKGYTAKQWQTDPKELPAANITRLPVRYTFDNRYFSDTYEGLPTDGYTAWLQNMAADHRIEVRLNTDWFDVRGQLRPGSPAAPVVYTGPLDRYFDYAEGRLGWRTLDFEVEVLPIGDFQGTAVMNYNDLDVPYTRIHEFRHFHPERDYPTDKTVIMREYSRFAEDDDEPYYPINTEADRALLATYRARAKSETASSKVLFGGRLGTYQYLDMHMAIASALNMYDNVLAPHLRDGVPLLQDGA

Chain of Glucose-6-phosphate 1-dehydrogenase (P11413 whole entry): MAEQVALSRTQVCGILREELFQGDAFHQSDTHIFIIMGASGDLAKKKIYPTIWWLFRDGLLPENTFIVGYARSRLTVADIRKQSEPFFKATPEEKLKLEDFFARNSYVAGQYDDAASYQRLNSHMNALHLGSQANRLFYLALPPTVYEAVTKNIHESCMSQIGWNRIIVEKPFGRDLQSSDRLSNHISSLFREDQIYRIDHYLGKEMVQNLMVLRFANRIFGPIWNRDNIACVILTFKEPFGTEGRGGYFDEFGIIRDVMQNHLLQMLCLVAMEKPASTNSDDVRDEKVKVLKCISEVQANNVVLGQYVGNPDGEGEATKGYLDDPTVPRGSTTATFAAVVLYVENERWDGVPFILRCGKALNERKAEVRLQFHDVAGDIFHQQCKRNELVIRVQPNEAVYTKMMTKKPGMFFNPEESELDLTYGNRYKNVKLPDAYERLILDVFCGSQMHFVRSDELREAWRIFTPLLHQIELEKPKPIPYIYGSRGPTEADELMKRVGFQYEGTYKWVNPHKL

## CCS(=O)(=O)N1CCN(c2ccc([N+](=O)[O-])c(NC(C)c3ccccc3)c2)CC1 (configuration not stated)
[1]
  IC50: > 80 µM (inactive)

## N#Cc1sc2nc(-c3cccs3)cc(-c3ccc(Cl)cc3)c2c1N
[2]
  AC50: 3.98 µM (inconclusive)
[3]
  IC50: > 49.7 µM (inactive)
[4]
  IC50: 4.74 µM (active)
[5]
  AC50: 1.41 µM (inconclusive)

## COc1ccccc1NC(=O)CCC(=O)N/N=C(/C)c1ccc(C)cc1
[6]
  IC50: 46.9 µM (inactive)
[7]
  IC50: > 67.5 µM (inactive)

## Cc1cc(C)c(C)c(S(=O)(=O)N2CCN(C)CC2)c1C
[6]
  IC50: > 67.5 µM (inactive)
[7]
  IC50: > 67.5 µM (inactive)

## Cc1cc(O)c(C(C)C)cc1N=Cc1ccc(N(C)C)cc1
[1]
  IC50: 23.9 µM (inactive)
[8]
  IC50: > 100 µM (active)

## Cc1cc(C(=O)N/N=C/c2ccc([N+](=O)[O-])o2)c(C)o1
[9]
  IC50: > 119 µM (inactive)
[10]
  CC50: 38.9 µM (active)
[11]
  IC50: > 119 µM (inactive)
[12]
  AC50: 4.79 µM (active)
[13]
  IC50: 1.89 µM (active)

## Clc1ccccc1-c1nnc(-c2cccs2)o1
[6]
  IC50: > 67.5 µM (inactive)
[7]
  IC50: > 67.5 µM (inactive)

## O=Nc1c2[nH]c3ccccc3[n+]([O-])c-2c2ccccc12
[14]
  CC50: 34.2 µM (active)
[15]
  EC50: 15.7 µM (active)
[16]
  EC50: 8.47 µM (active)
[17]
  EC50: 12.5 µM (inconclusive)
[18]
  CC50: > 40 µM (active)
[9]
  IC50: > 119 µM (inactive)
[11]
  IC50: > 119 µM (inactive)

## O=C(OCCN1C(=O)c2cccc3c(N4CCOCC4)ccc(c23)C1=O)c1cccc(Cl)c1
[19]
  AC50: 19.2 µM (active)

## CCN1C(=O)NC(=O)/C(=C\c2cn(CC(=O)N3CCCC3)c3ccccc23)C1=O
[19]
  AC50: 107 µM (active)

Source: ChEMBL document CHEMBL1201862, “PubChem BioAssay data set” (2004)
